Experimental data: US20250051314A1, “SMALL MOLECULE INHIBITORS OF INTERFERON GAMMA SIGNALING” (INSTITUT CURIE, priority 2021, published 2025)

Legend:
Type in all cases: cell-based
[1] = system: IFNγ-induced tyrosine phosphorylation of STAT1 (pSTAT1); assay: JAK/STAT signalling activation assay (pSTAT1/tSTAT1 immunoblot); details: Hela cells; for inhibition of IFNγ-induced pSTAT1 (IFNγ-signaling), result in words: screening at 40 μM; for inhibition of IFNγ-induced pSTAT1 (IFNγ-signaling), result in words / inhibition of phosphorylation of STAT, dose-response in words: 20 min pre-incubation with IFNγ; for inhibition of phosphorylation of STAT, dose-response in words: different concentrations; for IC50: Homo sapiens, 1000 U/ml IFNγ pre-incubated 20 min with compound, non-linear curve fit, n=3, read-out: IC50 pSTAT1 inhibition
Protocol: Cell culture: Hela cells were grown at 37° C. under 5% CO2 in DMEM high glucose Glutamax (Gibco, Life Technologies) complemented with 10% FBS (v/v) (Gibco, Life Technologies) and supplemented with 5 mM pyruvate (v/v) (Gibco, Life Technologies) and 1% penicillin-streptomycin (v/v) (Gibco, Life Technologies). Primary antibodies: Mouse anti-phospho-STAT1 Tyr701 (BD Transduction Laboratories, 612132, RRID: AB_399503, 1:1000 for western blot), rabbit anti-STAT1 (Cell Signaling, 9172, RRID: AB_2198300, 1:1000 for western blot), mouse anti-alpha-tubulin (Sigma, clone B512, T5168, RRID: AB_86546, 1:5000 for western blot); rabbit anti-IFN-γ ([Abcam, EPR1108, ab133566, 1:1000 for western blot). Secondary antibodies anti-mouse-Alexa488 (Invitrogen, A21202), anti-mouse-HRP (Jackson ImmunoResearch, 715-035-151) and anti-rabbit-HRP (Jackson ImmunoResearch, […]) were used at 1:5000 for western blot.
20 mM stock solution of compounds in DMSO were prepared and stored at −20° C.
Hela cells were treated 20 min at 37° C. with mixture containing 1000 U·ml^−1 IFNγ in DMEM with 0.2% BSA preincubated for 20 min at 37° C. with DMSO (as control) for JAK/STAT stimulation. For screening compounds, 40 μM compounds were pre-incubated with 1000 U·ml^−1 of IFNγ in DMEM containing 0.2% BSA for 20 min at 37° C. before adding it to Hela cells. 10-fold 7 or 5 serial dilutions from 400 μM of compounds were made in DMEM containing 1000 U·ml^−1 of IFNγ and 0.2% BSA, and incubated for 20 min before stimulating JAK/STAT for finding IC50 towards IFNγ.
Cells were lysed in sample buffer (62.5 mM Tris/HCl, […], 2% v/v SDS, 10% glycerol v/v, 40 mM dithiothreitol, and 0.03% w/v phenol red). Samples were analysed by SDS-PAGE on 4-15% Mini-PROTEAN* TGX™ Precast Gels or on 4-15% Mini-PROTEAN′ TGX™ Stain Free Gel (Bio-Rad) and immuno-blotted with the indicated primary antibodies and horseradish peroxidase- or Alexa488-conjugated secondary antibodies. […] Acquisition and quantification were performed with the ChemiDoc MP Imaging System (Bio-Rad). Phosphorylated protein over total protein ratio was determined on the same blot using horseradish peroxidase and Alexa488 signals.

Hela cells = assay: Cell viability assay (CellTiter-Blue); details: Hela cells treated for 24 h; for IC50: Homo sapiens, n=3
Protocol: Cell viability assay was carried out by plating 10,000 cells/well in 96-well plates. 3-Fold 8 serial dilutions of the compounds from 3 mM were made in DMEM. HeLa cells were treated for 24 h with the compounds of different concentrations made. In case of preincubation with IFNγ, 6000 U·ml^−1 of IFNγ per concentration of compounds were used and incubated for 20 min. According to manufacturer's protocol,
CellTiter-Blue® reagent was added after 24 h treatment and cells were incubated for 3 h before recording fluorescence intensities (λex. 560/20 nm; λem. 590/10 nm) using a Perkin Elmer Wallac 1420 Victor2 Microplate Reader.

[2] = system: formin-mediated actin assembly; assay: In cellulo actin nucleation assay (phalloidin staining, cell area); details: Hela cells, 40 μM, 20 min
Protocol: Hela cells grown on coverslips were treated with DMEM containing 0.2% BSA and the compounds (40 μM) for 20 min at 37° C., washed with cold PBS (two times) and then fixed with 4% paraformaldehyde for 30 min at room temperature, quenched in 50 mM NH4Cl for 10 min and permeabilized with 0.05% saponin in 0.2% BSA in PBS for 20 min. Cells were incubated with 165 nM phalloidin for 1 h at room temperature. DAPI containing fluoromount-G was used to mount coverslips onto glass slide. Cell areas were measured with ImageJ software (NIH).

| Compound | inhibition of IFNγ-induced pSTAT1 (IFNγ-signaling), result in words [1] | inhibition of phosphorylation of STAT, dose-response in words [1] | IC50 [1] [µM] | cytotoxicity at effective doses (Hela cells) | IC50 (Hela cells) [µM] | formin targeting / actin assembly (phalloidin pattern, cell area), result in words [2] |
| --- | --- | --- | --- | --- | --- | --- |
| O=C1NC(=S)N(c2cccc(F)c2)C(=O)C1=Cc1ccc(Cl)o1 [Compound 6b, 5-((5-chlorofuran-2-yl)methylene)-1-(3-fluorophenyl)-2-thioxodihydropyrimidine-4,6(1H,5H)-dione] | inhibited either IFNγ-signaling or formins | – | – | – | – | – |
| C#Cc1ccc(C=C2C(=O)NC(=S)N(c3cccc(Br)c3)C2=O)o1 [Compound 5a, (1-(3-bromophenyl)-5-((5-ethynylfuran-2-yl)methylene)-2-thioxodihydropyrimidine-4,6(1H,5H)-dione)] | inhibited IFNγ-induced pSTAT1 | dose-dependent manner in the low micromolar range | 1.08 | did not show significant cytotoxicity at effective doses | 331 | deprived of formin targeting |
| C#Cc1ccc(C=C2C(=O)N(c3cccc(F)c3)C(=S)N(c3cccc(F)c3)C2=O)o1 [Compound 5k, 5-((5-ethynylfuran-2-yl)methylene)-1,3-bis(3-fluorophenyl)-2-thioxodihydropyrimidine-4,6(1H,5H)-dione] | – | dose-dependent manner in the low micromolar range | 5.97 | did not show significant cytotoxicity at effective doses | 95 | – |
| C#Cc1ccc(C=C2C(=O)NC(=O)N(c3cccc(Br)c3)C2=O)o1 [Compound 5l, 1-(3-bromophenyl)-5-((5-ethynylfuran-2-yl)methylene)pyrimidine-2,4,6(1H,3H,5H)-trione] | retained its activity against both IFNγ-signaling and formin | – | – | – | – | retained its activity against both IFNγ-signaling and formin |
| C#Cc1ccc(C=C2C(=O)N(c3cccc(Br)c3)C(=S)N(c3cccc(Br)c3)C2=O)o1 [Compound 5j, 1,3-bis(3-bromophenyl)-5-((5-ethynylfuran-2-yl)methylene)-2-thioxodihydropyrimidine-4,6(1H,5H)-dione] | biologically active compounds | dose-dependent manner in the low micromolar range | 4.63 | did not show significant cytotoxicity at effective doses | 308 | – |
| O=C1NC(=S)N(c2cccc(F)c2)C(=O)C1=Cc1ccc(Br)o1 [Compound 6i, 5-((5-bromofuran-2-yl)methylene)-1-(3-fluorophenyl)-2-thioxodihydropyrimidine-4,6(1H,5H)-dione] | – | – | – | – | – | inhibited either IFNγ-signaling or formins |
| C#Cc1ccc(C=C2C(=O)NC(=S)N(c3cccc(F)c3)C2=O)o1 [Compound 5b, 5-((5-ethynylfuran-2-yl)methylene)-1-(3-fluorophenyl)-2-thioxodihydropyrimidine-4,6(1H,5H)-dione] | – | dose-dependent manner in the low micromolar range | 1.05 | did not show significant cytotoxicity at effective doses | 95 | – |
| O=C1NC(=S)N(c2cccc(Br)c2)C(=O)C1=Cc1ccco1 [SMIFH2, 1-(3-Bromophenyl)-5-(2-furylmethylene)-2-thioxo-hexahydropyrimidine-4,6-dione, reference compound] | capable of inhibiting IFNγ signaling | – | – | – | – | – |
| O=C1NC(=O)N(c2cccc(Br)c2)C(=O)C1=Cc1ccco1 [Compound 6l, 1-(3-bromophenyl)-5-(furan-2-ylmethylene)pyrimidine-2,4,6(1H,3H,5H)-trione] | did not show IFNγ-signaling inhibitory activity | – | – | – | – | – |
| Cc1ccc(C=C2C(=O)NC(=S)N(c3cccc(F)c3)C2=O)o1 [Compound 6a, 1-(3-fluorophenyl)-5-((5-methylfuran-2-yl)methylene)-2-thioxodihydropyrimidine-4,6(1H,5H)-dione] | – | – | – | – | – | inhibited either IFNγ-signaling or formins |
